This is an account of results in ChEMBL document CHEMBL2202978, “Synthesis and antiviral activity of novel HCV NS3 protease inhibitors with P4 capping groups” (Bioorg Med Chem Lett, 2012).

Each structure is given as a SMILES string.

For orientation: EC50 means the midpoint of the concentration-response curve. A high value points to weaker potency. In general, IC50 refers to the point on the concentration scale where inhibition reaches its midpoint. Higher therefore signals weaker potency.

For experiment [1], the system named is Hepatitis C virus. As to the kind of experiment: Antiviral activity against HCV subtype 1b expressing NS3/4A D168A mutant protease infected in ET cells after 72 hrs. It is filed as functional, organism-based, Hepacivirus hominis. The conditions noted are these: genotype 1b.
Experiment [2] in a line: Inhibition of HCV subtype 1a NS3/4A protease (Ac-DE-Dap(QXL520)-EE-Abu-psi-[COO]-ASC(5-FAMsp)-NH2 as substrate by FRET analysis. On the set-up: species or system Hepatitis C virus subtype 1a.
The test system of experiment [3] is Hepatitis C virus. As to the kind of experiment: Antiviral activity against HCV subtype 1b expressing NS3/4A R115K mutant protease infected in ET cells after 72 hrs. The class given is functional, organism-based, Hepacivirus hominis. The conditions noted are these: genotype 1b.
Experiment [4] concerns Hepatitis C virus. The experiment can be described thus: Antiviral activity against HCV subtype 1a infected in human hepatoma cells. The class given is functional, organism-based, Hepacivirus hominis.
Experiment [5] has as its system Hepatitis C virus. As to the kind of experiment: Antiviral activity against HCV subtype 1b expressing NS3/4A A156V mutant protease infected in ET cells after 72 hrs. It is filed as functional, organism-based, Hepacivirus hominis. The conditions noted are these: genotype 1b.
In experiment [6] the test system is Hepatitis C virus. As to the kind of experiment: Antiviral activity against HCV subtype 1b infected in human hepatoma cells. The class given is functional, organism-based, Hepacivirus hominis. The settings on record: genotype 1b.
Experiment [7] concerns Hepatitis C virus. The experiment can be described thus: Antiviral activity against HCV subtype 1b expressing NS3/4A A156S mutant protease infected in ET cells after 72 hrs. It is filed as functional, organism-based, Hepacivirus hominis. The settings on record: genotype 1b.
Experiment [8] relates to Hepatitis C virus. As to the kind of experiment: Antiviral activity against HCV subtype 1b expressing NS3/4A D168V mutant protease infected in ET cells after 72 hrs. It is filed as functional, organism-based, Hepacivirus hominis. The settings on record: genotype 1b.
Experiment [9] relates to Hepatitis C virus. The experiment can be described thus: Antiviral activity against HCV subtype 1b expressing wild type NS3/4A protease infected in ET cells after 72 hrs. The class given is functional, organism-based, Hepacivirus hominis. The conditions noted are these: genotype 1b.
Experiment [10] concerns Hepatitis C virus. The experiment can be described thus: Antiviral activity against HCV subtype 1b expressing NS3/4A A156T mutant protease infected in ET cells after 72 hrs. The class given is functional, organism-based, Hepacivirus hominis. The settings on record: genotype 1b.

Regarding `COc1ccc2c(O[C@@H]3C[C@H]4C(=O)N[C@]5(C(=O)NS(=O)(=O)C6CC6)C[C@H]5/C=C\CCCCC[C@H](N/C(=N\C#N)NC(C)(C)C)C(=O)N4C3)cc(-c3nc(C4CC4)cs3)nc2c1C`, the EC50 in the experiment on Hepatitis C virus [1] is 331 nM; with Hepatitis C virus [3], 123 nM; in the experiment with Hepatitis C virus [4] it was 2.5 nM; with Hepatitis C virus [5], 78 nM; in the experiment on Hepatitis C virus [6] it was 0.7 nM; in the experiment with Hepatitis C virus [7], 0.5 nM. Further, the EC50 in the experiment on Hepatitis C virus [8] came out at 832 nM; with Hepatitis C virus [9], 0.3 nM; in the experiment with Hepatitis C virus [10], 27 nM. Also, in experiment [2], the IC50 amounted to 2.5 nM.

`COc1ccc2c(O[C@@H]3C[C@H]4C(=O)N[C@]5(C(=O)NS(=O)(=O)C6CC6)C[C@H]5/C=C\CCCCC[C@H](NC(=O)C(=O)N5CCCCC5)C(=O)N4C3)cc(-c3nc(C4CC4)cs3)nc2c1C`: the concentration giving a half-maximal response (EC50) in the experiment on Hepatitis C virus [1] turned out to be 49 nM; in the experiment on Hepatitis C virus [3], 14 nM; with Hepatitis C virus [4], 0.5 nM; with Hepatitis C virus [5], 6.2 nM; in the experiment on Hepatitis C virus [6] it was 0.4 nM; with Hepatitis C virus [7], 0.1 nM. The EC50 with Hepatitis C virus [8] is 151 nM; with Hepatitis C virus [9] it was 0.02 nM; with Hepatitis C virus [10] it was 5.5 nM. For the same compound, the IC50 in experiment [2] amounted to 1 nM.

Regarding `COc1ccc2c(O[C@@H]3C[C@H]4C(=O)N[C@]5(C(=O)NS(=O)(=O)C6CC6)C[C@H]5/C=C\CCCCN(C)C(=O)[C@@H]4C3)cc(-c3nc(C(C)C)cs3)nc2c1C` [SIMEPREVIR], the EC50 with Hepatitis C virus [1] was 149 nM; in the experiment on Hepatitis C virus [3], 56 nM; in the experiment with Hepatitis C virus [4], 2 nM; with Hepatitis C virus [5], 344 nM; in the experiment on Hepatitis C virus [6], 1 nM; in the experiment on Hepatitis C virus [7], 0.3 nM. Also, the concentration giving a half-maximal response (EC50) in the experiment with Hepatitis C virus [8] worked out at 140 nM; in the experiment on Hepatitis C virus [9] it was 1 nM; with Hepatitis C virus [10] it was 86 nM. For the same compound, the IC50 in experiment [2] amounted to 10 nM.

The compound `COc1ccc2c(O[C@@H]3C[C@H]4C(=O)N[C@]5(C(=O)NS(=O)(=O)C6CC6)C[C@H]5/C=C\CCCCC[C@H](NC(=O)C(C)=O)C(=O)N4C3)cc(-c3nc(C4CC4)cs3)nc2c1C` showed an IC50 in [2] of 0.8 nM. The results for the EC50 in the experiment with Hepatitis C virus [4] and with Hepatitis C virus [6] were 0.5 nM and 0.6 nM, respectively.

On to `COc1ccc2c(O[C@@H]3C[C@H]4C(=O)N[C@]5(C(=O)NS(=O)(=O)C6CC6)C[C@H]5/C=C\CCCCC[C@H](NC(=O)C(=O)NC(C)(C)C)C(=O)N4C3)cc(-c3nc(C4CC4)cs3)nc2c1C`, for which the IC50 in experiment [2] turned out to be 4 nM. The EC50 is 0.6 nM in the experiment on Hepatitis C virus [4] and 0.7 nM with Hepatitis C virus [6].

Turning to `CCC[C@H](NC(=O)[C@@H]1[C@H]2CCC[C@H]2CN1C(=O)[C@@H](NC(=O)[C@@H](NC(=O)c1cnccn1)C1CCCCC1)C(C)(C)C)C(=O)C(=O)NC1CC1` [TELAPREVIR], the EC50 in the experiment with Hepatitis C virus [1] was 638 nM; in the experiment on Hepatitis C virus [3], 1780 nM; in the experiment with Hepatitis C virus [5] it was 1960 nM; in the experiment with Hepatitis C virus [7], 883 nM; in the experiment with Hepatitis C virus [8], 207 nM; in the experiment with Hepatitis C virus [9] it was 34 nM. Moreover, the EC50 with Hepatitis C virus [10] was 1140 nM. This compound showed an IC50 in [2] of 500 nM.

As for `COc1ccc2c(O[C@@H]3C[C@H]4C(=O)N[C@]5(C(=O)NS(=O)(=O)C6CC6)C[C@H]5/C=C\CCCCC[C@H](NC(=O)C5(OC)CCCC5)C(=O)N4C3)cc(-c3nc(C4CC4)cs3)nc2c1C`, the EC50 with Hepatitis C virus [1] came out at 50 nM; with Hepatitis C virus [3], 25 nM; in the experiment with Hepatitis C virus [4] it was 0.3 nM; with Hepatitis C virus [5], 49 nM; in the experiment on Hepatitis C virus [6] it was 0.3 nM; in the experiment on Hepatitis C virus [7], 0.09 nM. For the same compound, the figures for the EC50 with Hepatitis C virus [8], in the experiment on Hepatitis C virus [9] and in the experiment with Hepatitis C virus [10] were 234 nM, 0.05 nM and 13 nM, respectively. The compound further registered a 50% inhibitory concentration (IC50) in experiment [2] of 4 nM.

`CCOC(=O)C(=O)N[C@H]1CCCCC/C=C\[C@@H]2C[C@@]2(C(=O)NS(=O)(=O)C2CC2)NC(=O)[C@@H]2C[C@@H](Oc3cc(-c4nc(C5CC5)cs4)nc4c(C)c(OC)ccc34)CN2C1=O`: the IC50 in experiment [2] was found to be 1 nM. The values for the EC50 with Hepatitis C virus [4] and in the experiment on Hepatitis C virus [6] were 2.6 nM and 1.2 nM, respectively.

With `COc1ccc2c(O[C@@H]3C[C@H]4C(=O)N[C@]5(C(=O)NS(=O)(=O)C6CC6)C[C@H]5/C=C\CCCCC[C@H](NC(=O)C(=O)N5CCCC5)C(=O)N4C3)cc(-c3nc(C4CC4)cs3)nc2c1C`, in [2], the IC50 came to 1.3 nM. For the same compound, the EC50 in the experiment with Hepatitis C virus [4] and in the experiment on Hepatitis C virus [6] was 0.4 nM throughout.

On to `COc1ccc2c(O[C@@H]3C[C@H]4C(=O)N[C@]5(C(=O)NS(=O)(=O)C6CC6)C[C@H]5/C=C\CCCCC[C@H](NC(=O)C(=O)NC5CCCCC5)C(=O)N4C3)cc(-c3nc(C4CC4)cs3)nc2c1C`, for which, in experiment [2], the IC50 amounted to 6.3 nM. Besides, the EC50 in the experiment with Hepatitis C virus [4] and in the experiment on Hepatitis C virus [6] was 0.5 nM in each case.

On to `COc1ccc2c(O[C@@H]3C[C@H]4C(=O)N[C@]5(C(=O)NS(=O)(=O)C6CC6)C[C@H]5/C=C\CCCCC[C@H](N5CCOC5=O)C(=O)N4C3)cc(-c3nc(C4CC4)cs3)nc2c1C`, for which the EC50 in the experiment with Hepatitis C virus [1] was determined as 1820 nM; in the experiment on Hepatitis C virus [3] it was 977 nM; in the experiment on Hepatitis C virus [4], 17 nM; with Hepatitis C virus [5] it was 151 nM; in the experiment on Hepatitis C virus [6], 14 nM; with Hepatitis C virus [7], 3.5 nM. Besides, the concentration giving a half-maximal response (EC50) in the experiment with Hepatitis C virus [8] is 3020 nM; in the experiment on Hepatitis C virus [9] it was 27 nM; in the experiment with Hepatitis C virus [10], 107 nM. The compound further registered an IC50 in experiment [2] of 2.5 nM.

For the compound `COc1ccc2c(O[C@@H]3C[C@H]4C(=O)N[C@]5(C(=O)NS(=O)(=O)C6CC6)C[C@H]5/C=C\CCCCC[C@H](NC(=O)N(C)C)C(=O)N4C3)cc(-c3nc(C4CC4)cs3)nc2c1C`, the 50% effective concentration (EC50) with Hepatitis C virus [1] was 14 nM; with Hepatitis C virus [3], 0.5 nM; in the experiment with Hepatitis C virus [4], 0.3 nM; with Hepatitis C virus [5], 2 nM; with Hepatitis C virus [6], 0.2 nM; in the experiment on Hepatitis C virus [7], 0.05 nM. The results for the half-maximal effective concentration (EC50) in the experiment on Hepatitis C virus [8], in the experiment with Hepatitis C virus [9] and in the experiment on Hepatitis C virus [10] were 27 nM, 0.03 nM and 0.5 nM, respectively. Half-maximal inhibition in experiment [2] (IC50) was put at 0.5 nM.

For `COc1ccc2c(O[C@@H]3C[C@H]4C(=O)N[C@]5(C(=O)NS(=O)(=O)C6CC6)C[C@H]5/C=C\CCCCC[C@H](N5CCCC5=O)C(=O)N4C3)cc(-c3nc(C4CC4)cs3)nc2c1C`, the EC50 in the experiment with Hepatitis C virus [1] is 1350 nM; in the experiment on Hepatitis C virus [3], 794 nM; with Hepatitis C virus [4], 42 nM; with Hepatitis C virus [5], 646 nM; in the experiment with Hepatitis C virus [6], 24 nM; with Hepatitis C virus [7], 6.2 nM. The half-maximal effective concentration (EC50) with Hepatitis C virus [8] was 3980 nM; in the experiment on Hepatitis C virus [9] it was 8.7 nM; with Hepatitis C virus [10], 219 nM. The same compound registered an IC50 in experiment [2] of 20 nM.

For `CC(C)(C)OC(=O)N[C@H]1CCCCC/C=C\[C@@H]2C[C@@]2(C(=O)NS(=O)(=O)C2CC2)NC(=O)[C@@H]2C[C@@H](OC(=O)N3Cc4cccc(F)c4C3)CN2C1=O` [DANOPREVIR], the EC50 in the experiment on Hepatitis C virus [1] turned out to be 39 nM; in the experiment with Hepatitis C virus [3] it was 82 nM; in the experiment with Hepatitis C virus [5], 8 nM; with Hepatitis C virus [7], 2 nM; in the experiment with Hepatitis C virus [8] it was 26 nM; with Hepatitis C virus [9] it was 0.2 nM. The response with Hepatitis C virus [10] was half-maximal at 10 nM (EC50). Besides, the half-maximal inhibitory concentration (IC50) in [2] is 0.7 nM.

`COc1ccc2c(O[C@@H]3C[C@H]4C(=O)N[C@]5(C(=O)NS(=O)(=O)C6CC6)C[C@H]5/C=C\CCCCC[C@H](NC(=O)C5(OC)CC5)C(=O)N4C3)cc(-c3nc(C4CC4)cs3)nc2c1C` displayed an IC50 in experiment [2] of 1.6 nM. The EC50 in the experiment with Hepatitis C virus [4] and in the experiment with Hepatitis C virus [6] was 0.2 nM in each case.
